These are literature values, as cited in patent US20190374533A1, “COMPOUNDS AND METHODS FOR INHIBITING NHE-MEDIATED ANTIPORT IN THE TREATMENT OF DISORDERS ASSOCIATED WITH FLUID RETENTION OR SALT OVERLOAD AND GASTROINTESTINAL TRACT DISORDERS” (Ardelyx, Inc., priority 2008, published 2019).

For orientation: IC50 means the concentration needed to halve the response being measured.

Data set [1] concerns the target NHE-1 (Rattus norvegicus, UniProt P26431). The following applies: * = from rat; read-out: IC50 or Ki, NHE-1; cited from earlier work.
Data set [2] deals with NHE-3 (Rattus norvegicus, UniProt P26433). The following applies: * = from rat; read-out: IC50 or Ki, NHE-3; cited from earlier work.
Data set [3] deals with T1, NHE-5 (Homo sapiens, UniProt Q14940).
T1 sequence (Q14940 1-896): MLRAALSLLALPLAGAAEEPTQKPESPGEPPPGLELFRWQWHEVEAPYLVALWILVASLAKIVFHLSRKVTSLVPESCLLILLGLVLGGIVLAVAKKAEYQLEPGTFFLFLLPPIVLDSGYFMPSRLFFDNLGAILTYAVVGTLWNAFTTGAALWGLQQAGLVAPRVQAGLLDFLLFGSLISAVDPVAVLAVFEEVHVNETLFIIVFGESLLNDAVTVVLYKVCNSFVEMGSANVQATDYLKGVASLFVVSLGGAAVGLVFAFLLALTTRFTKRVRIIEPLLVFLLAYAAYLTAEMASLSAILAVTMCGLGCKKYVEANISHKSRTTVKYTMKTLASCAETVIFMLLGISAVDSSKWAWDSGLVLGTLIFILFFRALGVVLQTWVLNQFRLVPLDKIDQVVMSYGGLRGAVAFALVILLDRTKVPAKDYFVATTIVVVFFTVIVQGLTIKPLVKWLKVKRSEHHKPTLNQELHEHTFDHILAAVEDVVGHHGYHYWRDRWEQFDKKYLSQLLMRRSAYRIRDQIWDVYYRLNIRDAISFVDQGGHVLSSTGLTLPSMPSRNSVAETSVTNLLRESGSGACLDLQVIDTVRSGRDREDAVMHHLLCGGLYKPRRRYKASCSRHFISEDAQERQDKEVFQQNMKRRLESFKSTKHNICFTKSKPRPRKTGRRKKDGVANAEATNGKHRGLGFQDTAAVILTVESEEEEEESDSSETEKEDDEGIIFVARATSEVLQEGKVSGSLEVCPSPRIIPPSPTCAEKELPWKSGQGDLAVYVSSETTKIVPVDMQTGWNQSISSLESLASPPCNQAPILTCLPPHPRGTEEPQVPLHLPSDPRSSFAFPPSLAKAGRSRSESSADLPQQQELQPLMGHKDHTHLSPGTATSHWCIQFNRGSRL
The following applies: read-out: IC50 or Ki, NHE-5; cited from earlier work.

NHE-3, sequence (P26433 29-831): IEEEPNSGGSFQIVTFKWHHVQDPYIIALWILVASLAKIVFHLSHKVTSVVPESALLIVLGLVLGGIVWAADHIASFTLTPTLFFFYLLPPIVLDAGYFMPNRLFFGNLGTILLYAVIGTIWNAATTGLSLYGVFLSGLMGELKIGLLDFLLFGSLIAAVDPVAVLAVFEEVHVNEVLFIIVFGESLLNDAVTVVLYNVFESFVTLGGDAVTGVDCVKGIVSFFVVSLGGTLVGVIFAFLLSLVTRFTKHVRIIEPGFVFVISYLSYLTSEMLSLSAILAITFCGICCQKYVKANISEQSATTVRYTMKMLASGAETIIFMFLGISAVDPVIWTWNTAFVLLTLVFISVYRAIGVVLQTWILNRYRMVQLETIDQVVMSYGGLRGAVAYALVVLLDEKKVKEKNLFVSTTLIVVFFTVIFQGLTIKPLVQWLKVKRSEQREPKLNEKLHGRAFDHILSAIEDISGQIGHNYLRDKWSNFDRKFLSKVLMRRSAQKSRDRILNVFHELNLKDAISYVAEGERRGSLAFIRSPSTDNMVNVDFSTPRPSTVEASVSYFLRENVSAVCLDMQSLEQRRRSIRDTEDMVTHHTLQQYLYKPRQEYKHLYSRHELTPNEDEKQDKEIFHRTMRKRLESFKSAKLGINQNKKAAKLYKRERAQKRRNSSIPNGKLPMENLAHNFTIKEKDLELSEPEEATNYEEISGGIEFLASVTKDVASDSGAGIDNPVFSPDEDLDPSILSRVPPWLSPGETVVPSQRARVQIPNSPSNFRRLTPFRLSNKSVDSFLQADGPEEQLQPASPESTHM
NHE-1, sequence (P26431 whole entry): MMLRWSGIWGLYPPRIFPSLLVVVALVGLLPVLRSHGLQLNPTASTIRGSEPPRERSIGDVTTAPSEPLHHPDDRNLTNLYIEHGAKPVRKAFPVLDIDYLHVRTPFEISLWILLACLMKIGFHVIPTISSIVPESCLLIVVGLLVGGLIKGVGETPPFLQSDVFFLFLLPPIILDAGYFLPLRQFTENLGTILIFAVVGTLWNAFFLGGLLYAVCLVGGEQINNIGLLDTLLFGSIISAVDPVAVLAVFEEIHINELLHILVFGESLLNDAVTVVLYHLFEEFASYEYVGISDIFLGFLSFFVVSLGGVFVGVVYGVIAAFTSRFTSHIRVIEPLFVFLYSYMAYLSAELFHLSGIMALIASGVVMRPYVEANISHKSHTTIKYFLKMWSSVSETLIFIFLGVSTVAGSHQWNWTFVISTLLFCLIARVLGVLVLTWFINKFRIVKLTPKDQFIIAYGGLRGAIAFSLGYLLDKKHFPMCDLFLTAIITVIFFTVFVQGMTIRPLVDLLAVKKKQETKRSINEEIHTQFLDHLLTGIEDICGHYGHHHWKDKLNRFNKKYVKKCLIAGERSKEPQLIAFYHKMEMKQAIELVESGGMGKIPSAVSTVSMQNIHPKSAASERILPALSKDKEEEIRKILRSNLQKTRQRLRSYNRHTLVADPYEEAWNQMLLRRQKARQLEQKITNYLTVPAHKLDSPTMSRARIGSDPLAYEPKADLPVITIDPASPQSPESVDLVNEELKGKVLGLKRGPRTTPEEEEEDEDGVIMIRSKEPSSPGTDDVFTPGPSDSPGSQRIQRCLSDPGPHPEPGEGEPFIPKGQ

Turning to `N=C(N)NC(=O)c1nc(Cl)c(N2CCCCCC2)nc1N` [HMA], the 50% inhibitory concentration (IC50) in data set [1] was 13 nM; in data set [2], 2400 nM; in data set [3], 370 nM.
